Tested on: 192522-019-R-J2-PDC complex tumor spheroid viability
Assay: Anticancer human tumor 192522-019-R-J2-PDC patient-derived colon adenocarcinoma cell line growth inhibition [POLQ]
Settings: for IC50: curve of first compound; for viability, T/C: stronger effect = lower value
Outline: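 Patient-derived tumour cells were co-cultured with HUVEC and mesenchymal stem cells as multicellular spheroids at 37 °C. They were treated with POLQ inhibitors (novobiocin, ART-558, RP6685) alone or combined with other agents. Top concentrations were at or near clinical Cmax (otherwise 10 microM; SN-38 at 1 microM), decreasing in half-log steps.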

[1] = second compound 0.0316 µM, first compound 0.0316 µM
[2] = second compound 0.0316 µM, first compound 0.1 µM
[3] = second compound 0.0316 µM, first compound 0.316 µM
[4] = second compound 0.0316 µM, first compound 1 µM
[5] = second compound 0.0316 µM, first compound 3.16 µM
[6] = second compound 0.0316 µM, first compound 10 µM
[7] = second compound 0.1 µM, first compound 0.0316 µM
[8] = second compound 0.1 µM, first compound 0.1 µM
[9] = second compound 0.1 µM, first compound 0.316 µM
[10] = second compound 0.1 µM, first compound 1 µM
[11] = second compound 0.1 µM, first compound 3.16 µM
[12] = second compound 0.1 µM, first compound 10 µM
[13] = second compound 0.316 µM, first compound 0.0316 µM
[14] = second compound 0.316 µM, first compound 0.1 µM
[15] = second compound 0.316 µM, first compound 0.316 µM
[16] = second compound 0.316 µM, first compound 1 µM
[17] = second compound 0.316 µM, first compound 3.16 µM
[18] = second compound 0.316 µM, first compound 10 µM
[19] = second compound 1 µM, first compound 0.0316 µM
[20] = second compound 1 µM, first compound 0.1 µM
[21] = second compound 1 µM, first compound 0.316 µM
[22] = second compound 1 µM, first compound 1 µM
[23] = second compound 1 µM, first compound 3.16 µM
[24] = second compound 1 µM, first compound 10 µM
[25] = second compound 3.16 µM, first compound 0.0316 µM
[26] = second compound 3.16 µM, first compound 0.1 µM
[27] = second compound 3.16 µM, first compound 0.316 µM
[28] = second compound 3.16 µM, first compound 1 µM
[29] = second compound 3.16 µM, first compound 3.16 µM
[30] = second compound 3.16 µM, first compound 10 µM
[31] = second compound 10 µM, first compound 0.0316 µM
[32] = second compound 10 µM, first compound 0.1 µM
[33] = second compound 10 µM, first compound 0.316 µM
[34] = second compound 10 µM, first compound 1 µM
[35] = second compound 10 µM, first compound 3.16 µM
[36] = second compound 10 µM, first compound 10 µM
[37] = second compound 0.0316 µM, first compound 0.00316 µM
[38] = second compound 0.0316 µM, first compound 0.01 µM
[39] = second compound 0.1 µM, first compound 0.00316 µM
[40] = second compound 0.1 µM, first compound 0.01 µM
[41] = second compound 0.316 µM, first compound 0.00316 µM
[42] = second compound 0.316 µM, first compound 0.01 µM
[43] = second compound 1 µM, first compound 0.00316 µM
[44] = second compound 1 µM, first compound 0.01 µM
[45] = second compound 3.16 µM, first compound 0.00316 µM
[46] = second compound 3.16 µM, first compound 0.01 µM
[47] = second compound 10 µM, first compound 0.00316 µM
[48] = second compound 10 µM, first compound 0.01 µM
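Note: spheroids exposed to drugs for seven days before reading.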
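Throughout, for viability, T/C: 100% = DMSO vehicle control viability in luminescence.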

CC1COCCN1c1cc(C2(S(C)(=N)=O)CC2)nc(-c2ccnc3[nH]ccc23)n1 (stereo not drawn) + Cc1cccc(N(C)C(=O)C2C(O)CCN2c2nc(C)cc(C(F)(F)F)c2C#N)c1
IC50 (second compound 0.0316 µM): 4750 nM | IC50 (second compound 0.1 µM): 4150 nM | IC50 (second compound 0.316 µM): 5850 nM | IC50 (second compound 1 µM): 5720 nM | IC50 (second compound 3.16 µM): 7680 nM | IC50 (second compound 10 µM): 7210 nM | viability, T/C [1]: 112% | viability, T/C [2]: 88% | viability, T/C [3]: 92.8% | viability, T/C [4]: 83.8% | viability, T/C [5]: 59.9% | viability, T/C [6]: 30.1% | viability, T/C [7]: 101% | viability, T/C [8]: 97.8% | viability, T/C [9]: 97.7% | viability, T/C [10]: 89.2% | viability, T/C [11]: 54.8% | viability, T/C [12]: 34.2% | viability, T/C [13]: 106% | viability, T/C [14]: 105% | viability, T/C [15]: 105% | viability, T/C [16]: 90.1% | viability, T/C [17]: 64.5% | viability, T/C [18]: 37.6% | viability, T/C [19]: 97.6% | viability, T/C [20]: 99.2% | viability, T/C [21]: 96% | viability, T/C [22]: 98.1% | viability, T/C [23]: 64.3% | viability, T/C [24]: 36.5% | viability, T/C [25]: 104% | viability, T/C [26]: 100% | viability, T/C [27]: 103% | viability, T/C [28]: 91.9% | viability, T/C [29]: 78.7% | viability, T/C [30]: 41.4% | viability, T/C [31]: 95.5% | viability, T/C [32]: 106% | viability, T/C [33]: 113% | viability, T/C [34]: 98.9% | viability, T/C [35]: 75.7% | viability, T/C [36]: 39.8%

CCCS(=O)(=O)Nc1ccc(F)c(C(=O)c2c[nH]c3ncc(-c4ccc(Cl)cc4)cc23)c1F + Cc1cccc(N(C)C(=O)C2C(O)CCN2c2nc(C)cc(C(F)(F)F)c2C#N)c1
IC50 (second compound 0.0316 µM): > 10000 nM | IC50 (second compound 0.1 µM): > 10000 nM | IC50 (second compound 0.316 µM): > 10000 nM | IC50 (second compound 1 µM): > 10000 nM | IC50 (second compound 3.16 µM): > 10000 nM | IC50 (second compound 10 µM): > 10000 nM | viability, T/C [1]: 101% | viability, T/C [2]: 110% | viability, T/C [3]: 96.8% | viability, T/C [4]: 119% | viability, T/C [5]: 109% | viability, T/C [6]: 77.7% | viability, T/C [7]: 105% | viability, T/C [8]: 102% | viability, T/C [9]: 106% | viability, T/C [10]: 114% | viability, T/C [11]: 101% | viability, T/C [12]: 78.7% | viability, T/C [13]: 106% | viability, T/C [14]: 101% | viability, T/C [15]: 97.3% | viability, T/C [16]: 97% | viability, T/C [17]: 105% | viability, T/C [18]: 62.8% | viability, T/C [19]: 113% | viability, T/C [20]: 118% | viability, T/C [21]: 103% | viability, T/C [22]: 102% | viability, T/C [23]: 120% | viability, T/C [24]: 61.5% | viability, T/C [25]: 101% | viability, T/C [26]: 106% | viability, T/C [27]: 105% | viability, T/C [28]: 103% | viability, T/C [29]: 102% | viability, T/C [30]: 73.2% | viability, T/C [31]: 110% | viability, T/C [32]: 102% | viability, T/C [33]: 98.3% | viability, T/C [34]: 106% | viability, T/C [35]: 124% | viability, T/C [36]: 66.2%

COc1cccc(OCCCN)c1-c1cc(Nc2cnc(C#N)cn2)n[nH]1 + Cc1cccc(N(C)C(=O)C2C(O)CCN2c2nc(C)cc(C(F)(F)F)c2C#N)c1
IC50 (second compound 0.0316 µM): 28.3 nM | IC50 (second compound 0.1 µM): 30.1 nM | IC50 (second compound 0.316 µM): 48.4 nM | IC50 (second compound 1 µM): 71.6 nM | IC50 (second compound 3.16 µM): 59.1 nM | IC50 (second compound 10 µM): 54.6 nM | viability, T/C [37]: 91.4% | viability, T/C [38]: 92.1% | viability, T/C [1]: 45.4% | viability, T/C [2]: 41% | viability, T/C [3]: 39.8% | viability, T/C [4]: 38% | viability, T/C [39]: 107% | viability, T/C [40]: 83.4% | viability, T/C [7]: 49.5% | viability, T/C [8]: 35.5% | viability, T/C [9]: 41.1% | viability, T/C [10]: 39% | viability, T/C [41]: 100% | viability, T/C [42]: 86.2% | viability, T/C [13]: 54% | viability, T/C [14]: 44% | viability, T/C [15]: 38.1% | viability, T/C [16]: 43.4% | viability, T/C [43]: 115% | viability, T/C [44]: 97.4% | viability, T/C [19]: 62% | viability, T/C [20]: 44.9% | viability, T/C [21]: 45.3% | viability, T/C [22]: 36.8% | viability, T/C [45]: 108% | viability, T/C [46]: 99.2% | viability, T/C [25]: 58.8% | viability, T/C [26]: 41.5% | viability, T/C [27]: 44.1% | viability, T/C [28]: 39.9% | viability, T/C [47]: 105% | viability, T/C [48]: 89.4% | viability, T/C [31]: 53% | viability, T/C [32]: 47.2% | viability, T/C [33]: 48% | viability, T/C [34]: 43.6%

Cn1ncnc1[C@H]1c2n[nH]c(=O)c3cc(F)cc(c23)N[C@@H]1c1ccc(F)cc1 + Cc1cccc(N(C)C(=O)C2C(O)CCN2c2nc(C)cc(C(F)(F)F)c2C#N)c1
IC50 (second compound 0.0316 µM): > 100 nM | IC50 (second compound 0.1 µM): > 100 nM | IC50 (second compound 0.316 µM): > 100 nM | IC50 (second compound 1 µM): > 100 nM | IC50 (second compound 3.16 µM): > 100 nM | IC50 (second compound 10 µM): > 100 nM | viability, T/C (second compound 0.0316 µM, first compound 0.000316 µM): 109% | viability, T/C (second compound 0.0316 µM, first compound 0.001 µM): 96.1% | viability, T/C [37]: 96.3% | viability, T/C [38]: 103% | viability, T/C [1]: 110% | viability, T/C [2]: 88.6% | viability, T/C (second compound 0.1 µM, first compound 0.000316 µM): 99.2% | viability, T/C (second compound 0.1 µM, first compound 0.001 µM): 96.3% | viability, T/C [39]: 105% | viability, T/C [40]: 101% | viability, T/C [7]: 108% | viability, T/C [8]: 101% | viability, T/C (second compound 0.316 µM, first compound 0.000316 µM): 111% | viability, T/C (second compound 0.316 µM, first compound 0.001 µM): 103% | viability, T/C [41]: 114% | viability, T/C [42]: 105% | viability, T/C [13]: 103% | viability, T/C [14]: 102% | viability, T/C (second compound 1 µM, first compound 0.000316 µM): 110% | viability, T/C (second compound 1 µM, first compound 0.001 µM): 108% | viability, T/C [43]: 109% | viability, T/C [44]: 103% | viability, T/C [19]: 100% | viability, T/C [20]: 95.3% | viability, T/C (second compound 3.16 µM, first compound 0.000316 µM): 125% | viability, T/C (second compound 3.16 µM, first compound 0.001 µM): 106% | viability, T/C [45]: 112% | viability, T/C [46]: 101% | viability, T/C [25]: 118% | viability, T/C [26]: 96.9% | viability, T/C (second compound 10 µM, first compound 0.000316 µM): 114% | viability, T/C (second compound 10 µM, first compound 0.001 µM): 103% | viability, T/C [47]: 119% | viability, T/C [48]: 102% | viability, T/C [31]: 111% | viability, T/C [32]: 101%
